These results are taken from paper PMC5007854, “β-Nitrostyrenes as Potential Anti-leishmanial Agents” (Frontiers in Microbiology, 2016).

Values after ≈ are worked out from the molar mass of the structure shown.

For data set [1], the system named is Pseudomonas aeruginosa ATCC 27853. The data set can be described thus: Broth microdilution antibacterial susceptibility (MIC/MBC). The data set is classed as cell-based. To be noted: for MIC / MBC: Pseudomonas aeruginosa; for MIC: ATCC27853, 24 h, read-out: MIC, Pa ATCC 27853; for MBC: ATCC27853, ≥99.9% reduction of original inoculum, read-out: MBC, Pa ATCC 27853. An outline of the steps:
(§1)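 CLSI broth microdilution: Ca/Mg-supplemented Mueller-Hinton for bacteria (~5 × 10^5 CFU/mL, 24 h), MOPS-buffered RPMI 1640 pH 7.0 for fungi (Candida ~2.5 × 10^4, Aspergillus 0.4-5 × 10^4 CFU/mL, 48 h), 35°C, 1% DMSO, 64 to 0.12 μg/mL. MIC read visually; MBC/MFC by plating clear wells.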
(Dilution methods test growth across graded concentrations, often in twofold steps.)

In data set [2] the test system is Escherichia coli ATCC 25922. The data set is described as above. The data set is classed as cell-based. To be noted: for MIC / MBC: Escherichia coli; for MIC: ATCC25922, 24 h, read-out: MIC, Ec ATCC 25922; for MBC: ATCC25922, ≥99.9% reduction of original inoculum, read-out: MBC, Ec ATCC 25922. A digest of the protocol: as §1
The test system of data set [3] is Staphylococcus aureus ATCC 29213. The data set is described as above. The data set is classed as cell-based. To be noted: for MIC / MBC: Staphylococcus aureus; for MIC: ATCC29213, 24 h, read-out: MIC, Sa ATCC 29213; for MBC: ATCC29213, ≥99.9% reduction of original inoculum, read-out: MBC, Sa ATCC 29213. An outline of the steps: as §1
Data set [4] relates to Staphylococcus epidermidis ATCC 14990. The data set is described as above. The data set is classed as cell-based. To be noted: for MIC / MBC: Staphylococcus epidermidis; for MIC: ATCC14990, 24 h, read-out: MIC, Se ATCC 14990; for MBC: ATCC14990, ≥99.9% reduction of original inoculum, read-out: MBC, Se ATCC 14990. A digest of the protocol: as §1
The test system of data set [5] is L. donovani promastigotes. The data set can be described thus: Dose-dependent anti-promastigote activity, IC50 and IC90. The data set is classed as cell-based, Leishmania donovani. Here is the method: (§2) L. donovani parasites (MHOM/IN/83/AG83) were maintained in vivo in BALB/c mice. Promastigotes were routinely cultured at 22°C in medium M199 supplemented with 10% heat inactivated fetal bovine serum (FBS, HiMedia Laboratories, Mumbai, India), penicillin 100 (IU/ml), streptomycin (100 μg/ml). Log phase promastigotes were sub-cultured every 72–96 h, the inoculum being 2 × 10^6 cells/ml (Afrin et al., [2002]).
AmB was used as a standard antileishmanial drug control. The cell viability was evaluated by microscopically and the mean percentage viability was calculated as follows: Mean cell number of treated parasites / Mean cell number of untreated parasites × 100. The 50 and 90% inhibitory concentration (IC50 and IC90) i.e., the concentration of drugs that decreased the cell growth by 50 and 90% respectively was determined by graphical extrapolation after plotting the graph of % viability vs. concentration of drug (Islamuddin et al., [2014b]).
In vitro antileishmanial activity was expressed as IC50 by linear regression analysis. Values are mean ± SE of samples in triplicate from at least three independent experiments. Statistical analysis was performed using ANOVA followed by Dunnett's test. ^*P < 0.05, ^**P < 0.01 and ^***P < 0.001 compared with the untreated control group were considered significant.

Data set [6] concerns Aspergillus niger ATCC 16404. The data set is described as follows: Broth microdilution antifungal susceptibility (MIC/MFC). The note with it: for MIC / MFC: Aspergillus niger; for MIC: ATCC16404, 48 h, read-out: MIC, An ATCC 16404; for MFC: ATCC16404, ≥99.9% reduction of original inoculum, read-out: MFC, An ATCC 16404. The data set is classed as cell-based. An outline of the steps:
as §1

Data set [7] deals with Candida albicans ATCC 90028. The data set is described as above. The note with it: Candida albicans; for MFC: ATCC90028, ≥99.9% reduction of original inoculum, read-out: MFC, Ca ATCC 90028; for MIC: ATCC90028, 48 h, broth microdilution, 35°C, 48 h, read-out: MIC, Ca ATCC 90028. The data set is classed as cell-based. An outline of the steps:
as §1

Data set [8] relates to Aspergillus fumigatus ATCC 16424. Described as above. The data set is classed as cell-based. To be noted: for MIC / MFC: Aspergillus fumigatus; for MIC: ATCC16424, 48 h, read-out: MIC, Af ATCC 16424; for MFC: ATCC16424, ≥99.9% reduction of original inoculum, read-out: MFC, Af ATCC 16424. An outline of the steps:
as §1

The test system of data set [9] is Candida glabrata ATCC 90030. Described as above. The data set is classed as cell-based. The note with it: Nakaseomyces glabratus; for MFC: ATCC90030, ≥99.9% reduction of original inoculum, read-out: MFC, Cg ATCC 90030; for MIC: ATCC90030, 48 h, broth microdilution, 35°C, 48 h, read-out: MIC, Cg ATCC 90030. An outline of the steps:
as §1

The test system of data set [10] is L. donovani promastigotes. The data set is described as follows: Anti-leishmanial screening at 100 μM, parasite viability by microscopy. The data set is classed as cell-based, Leishmania donovani. The note with it: for Anti-leishmanial activity, in words (SAR discussion): L. donovani promastigotes. Here is the method: as §2
Nitrostyrine series were screened for their antileishmanial activity against L. donovani promastigotes in vitro. Promastigotes of L. donovani (2 × 10^6 cells/mL) in M199 medium were incubated at 22°C for 72 h with each compound at a concentration of 100 μM. Amphotericin B (AmB) served as reference drug, 0.2% DMSO was used as solvent control. Parasites with media alone were taken as control. Parasite viability was determined microscopically after 72 h (Islamuddin et al., [2014b]).

Where [11] appears, read: broth microdilution, 35°C, 24 h.
The mark [12] stands for this setting: broth microdilution, 35°C, 48 h.

The term MIC denotes the least concentration at which growth counts as inhibited. Broadly, the MBC is the lowest tested concentration that kills the bacteria rather than only halting them. As usually defined, the IC50 is the midpoint of a concentration-inhibition curve. One may read the MFC as the smallest concentration meeting the test's criterion for killing the fungus. As usually defined, the melting point is the temperature, or range, at which the solid turns liquid.

`C/C(=C\c1cccc(O)c1)[N+](=O)[O-]` [Compound 20, 3-((E)-2-nitroprop-1-enyl) phenol] gave a melting point of 96 to 98 °C. Also, in data set [1] (setting [11]), the MIC was in the range of 16 to 32 µg/mL (≈ 89.3 to 179 µM) and the “MIC, Pa ATCC 27853” value is 16 µg/mL (≈ 89.3 µM). In data set [1], the MBC is 32 µg/mL (≈ 179 µM). In addition, in data set [2] (setting [11]), the MIC was 16 to 32 µg/mL (≈ 89.3 to 179 µM) and the “MIC, Ec ATCC 25922” value stood at 16 µg/mL (≈ 89.3 µM). Moreover, the MBC in data set [2] was found to be 16 µg/mL (≈ 89.3 µM). In addition, in [3] (setting [11]), the MIC fell in the range of 2 to 32 µg/mL (≈ 11.2 to 179 µM) and the “MIC, Sa ATCC 29213” value turned out to be 2 µg/mL (≈ 11.2 µM). Also, in [3], the MBC amounted to 4 µg/mL (≈ 22.3 µM). In [4] (setting [11]), the MIC was in the range of 2 to 16 µg/mL (≈ 11.2 to 89.3 µM) and the “MIC, Se ATCC 14990” value is 2 µg/mL (≈ 11.2 µM). Further, the MBC in data set [4] was 2 µg/mL (≈ 11.2 µM). Moreover, the “Anti-leishmanial activity, in words (compounds with IC50 determined)” value in data set [5] (L. donovani promastigotes) is “moderately active”. Further, the IC50 in data set [5] (Leishmania donovani, 72 h, 22°C, values given in μM, read-out: IC50 against promastigotes) stood at 63.2 ± 2.06 µM. Besides, in data set [6] (setting [12]), the MIC fell in the range of 2 to 4 µg/mL (≈ 11.2 to 22.3 µM) and the “MIC, An ATCC 16404” value turned out to be 4 µg/mL (≈ 22.3 µM). Also, in data set [6], the MFC came to 4 µg/mL (≈ 22.3 µM). Also, in data set [7], the MFC came out at 16 µg/mL (≈ 89.3 µM). In addition, in [8] (setting [12]), the MIC was in the range of 4 to 8 µg/mL (≈ 22.3 to 44.6 µM) and the “MIC, Af ATCC 16424” value is 8 µg/mL (≈ 44.6 µM). Besides, the MFC in [8] came to 8 µg/mL (≈ 44.6 µM). The MFC in [9] came out at 8 µg/mL (≈ 44.6 µM). Moreover, in [10] (100 μM, 72 h, phase contrast microscope), the “Parasite viability after treatment” value was “All the parasites were found to be dead”.
With `CC/C(=C(/C)c1cccc(O)c1)[N+](=O)[O-]` [Compound 26, 3-((E)-3-nitropent-2-en-2-yl)phenol], the melting point was in the range of 138 to 140 °C. The MIC in [1] (setting [11]) is over 64 µg/mL. For the same compound, in data set [1], the MBC is over 64 µg/mL. Further, the MIC in [2] (setting [11]) is over 64 µg/mL. Also, in data set [2], the minimal bactericidal concentration (MBC) is over 64 µg/mL. Also, the MIC in data set [3] (setting [11]) was 8 µg/mL (≈ 38.6 µM). Also, the minimum bactericidal concentration (MBC) in [3] was 16 µg/mL (≈ 77.2 µM). The MIC in [4] (setting [11]) was found to be 8 µg/mL (≈ 38.6 µM). Besides, the minimal bactericidal concentration (MBC) in data set [4] turned out to be 8 µg/mL (≈ 38.6 µM). In data set [6] (setting [12]), the MIC stood at 64 µg/mL (≈ 309 µM). The MFC in [6] is over 64 µg/mL. For the same compound, in data set [7], the MIC is over 64 µg/mL and the MFC was over 64 µg/mL. In data set [8] (setting [12]), the MIC was over 64 µg/mL. Further, the MFC in data set [8] was over 64 µg/mL. In data set [9], the MIC was over 64 µg/mL and the MFC was over 64 µg/mL. The “Anti-leishmanial activity, in words (SAR discussion)” value in data set [10] is listed as “loss of activity”.
Take `CCOc1cccc(/C=C/[N+](=O)[O-])c1O` [Compound 27, 2-ethoxy-6-((E)-2-nitrovinyl) phenol]: the melting point fell in the range of 128 to 130 °C. In data set [1] (setting [11]), the minimum inhibitory concentration (MIC) was over 64 µg/mL. The MBC in data set [1] was over 64 µg/mL. Further, in data set [2] (setting [11]), the MIC is over 64 µg/mL. For the same compound, the MBC in [2] is over 64 µg/mL. In data set [3] (setting [11]), the MIC worked out at 32 µg/mL (≈ 153 µM). The MBC in data set [3] is 32 µg/mL (≈ 153 µM). For the same compound, the MIC in [4] (setting [11]) was 16 µg/mL (≈ 76.5 µM). The MBC in [4] came out at 16 µg/mL (≈ 76.5 µM). Also, the MIC in data set [6] (setting [12]) amounted to 8 µg/mL (≈ 38.2 µM). For the same compound, the MFC in data set [6] stood at 8 µg/mL (≈ 38.2 µM). Further, in data set [7], the MIC was 32 µg/mL (≈ 153 µM) and the MFC is 32 µg/mL (≈ 153 µM). In addition, in [8] (setting [12]), the MIC amounted to 16 µg/mL (≈ 76.5 µM). In [8], the MFC amounted to 16 µg/mL (≈ 76.5 µM). Moreover, in data set [9], the MIC amounted to 16 µg/mL (≈ 76.5 µM) and the MFC was 16 µg/mL (≈ 76.5 µM). For the same compound, the “Anti-leishmanial activity, in words (SAR discussion)” value in [10] is “inactive”.
